These results are taken from patent publication US20230285405A1, “Pharmaceuticals for Treating or Preventing Nidoviruses and Picornaviruses” (priority 2020, published 2023).

Where two headings read alike, the source gives them in different places.

For data set [1], the system named is OC43. The data set is described as follows: Drug screening: OC43 nucleoprotein staining in infected A549-mRuby cells. Type of data set: cell-based, human beta coronavirus OC43. The conditions noted are these: for activity at 10 µM: Betacoronavirus 1, OC43, 96 h. The method, boiled down:
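A549 cells expressing H2B-mRuby infected with OC43 at MOI 0.3 for 1 h at 33° C, then drugs added at 10 μM final and incubated 4 days at 33° C. Viral nucleoprotein immunostained and imaged; intensity normalized to cell number and no-drug controls (=100). Hits reduced staining >3 SD in both repeats without toxicity.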

The subject of a further data set is A549-mRuby cells. The data set is described as follows: Drug screening: effect on cell growth (cell number day 4 / day 0). The following applies: 10 μM drug; for Growth_1: number of cells at day 4 divided by number of cells at day 0 / toxic_1: repeat #1; for Growth_2: number of cells at day 4 divided by number of cells at day 0 / toxic_2: repeat #2. The method, boiled down: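 A549 cells carrying an H2B-mRuby reporter were infected with OC43 at MOI 0.3 for 1 h at 33° C, then given drug at 10 μM final. Cell numbers were counted by imaging at day 0 and again at day 4 after 4 days at 33° C, 5% CO2, with the screen run twice.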

Data set [2] deals with SARS-CoV-2. Briefly: SARS-CoV-2 plaque titers (progeny production). It is filed as cell-based, SARS-CoV-2 (nCoV/Washington/1/2020). The following applies: 10 μM drug for 2 hours, MOI 0.5, supernatant collected 2 days after. How it is done:
For SARS-CoV-2 plaque titers, cell supernatants from the infection described above were serially diluted (10-fold steps were used) and used to infect Vero E6 cells for 1 hour. Inoculum was removed and 1.25% methylcellulose DMEM solution was added to the cells and incubated for 3 days. Plates were fixed in 1:10 formalin for 1 hour, stained with crystal violet for 1 hour and were counted to determine plaque forming units (PFU)/ml.
The effect of several drugs on the production of viable progeny viruses was evaluated. Cells were treated with 10 μM of the drugs for 2 hours, infected at an MOI of 0.5 and the supernatant collected 2 days after for titration (FIG. 2C). Cepharanthine and azelastine completely eliminated SARS-CoV-2 progeny production (>5-logs decrease), while flupenthixol and desloratidine reduced viral titers by about 2-logs. Ultimately, the screen identified 20 safe-in-human drugs that are able to inhibit both OC43 and SARS-CoV-2 infection in vitro.

Data set [3] relates to OC43. Briefly: Dose-response analysis of OC43 infection. It is filed as cell-based, human beta coronavirus OC43. The method, then:
Dose-response analysis of OC43 infection was done similarly to the drug screening, except cells were seeded at a concentration of 5,000 cells per well and the media contained 2% BCS instead of 10% BCS. OC43 staining was performed 2 days after infection and analyzed similarly to what was described for the drug screening. A sigmoid fit was used to extract EC50 values using Matlab.

Data set [4] concerns SARS-CoV-2. Briefly: microbe, parasite or virus in culture. It is filed as cell-based, SARS-CoV-2 (nCoV/Washington/1/2020).
For another data set, the target named is T1, SARS-CoV-2 3CLpro (Severe acute respiratory syndrome coronavirus 2, UniProt P0DTD1).
T1 construct: the SARS-CoV-2 main protease (also known as 3CLpro, Mpro and nsp5); expressed in transfected cells; host or cells: 293T cells
Type of data set: cell-based.

[5] abbreviates: 10 μM drug, MOI 0.3, 4 days, OC43 staining normalized to no-drug controls, mean of the two screen repeats.
Where [6] appears, read: 10 μM drug, MOI 0.3, 4 days, OC43 staining normalized to no-drug controls, mean of the two screen repeats, read-out: OC43_mean.
Where [7] appears, read: 10 μM drug, MOI 0.3, 4 days, normalized to no-drug controls in the same plate, repeat #1, read-out: OC43_1: % staining of OC43 in screen repeat #1.
The mark [8] stands for this setting: 10 μM drug, MOI 0.3, 4 days, normalized to no-drug controls in the same plate, repeat #2, read-out: OC43_2: % staining of OC43 in screen repeat #2.
Where [9] appears, read: Betacoronavirus 1, OC43, 48 h, read-out: EC50 OC43, A549-mRuby cells, staining 2 days after infection.
[10] abbreviates: Severe acute respiratory syndrome coronavirus 2; read-out: EC50 SARS2.
[11] abbreviates: 10 μM drug, MOI 0.3, 4 days, normalized to no-drug controls in the same plate, repeat #1.
[12] abbreviates: 10 μM drug, MOI 0.3, 4 days, normalized to no-drug controls in the same plate, repeat #2.
The mark [13] stands for this setting: A549-mRuby cells, staining 2 days after infection, read-out: EC50 OC43.

Turning to `Cl.Cl.OCCN1CCN(CCC=C2c3ccccc3Sc3ccc(C(F)(F)F)cc32)CC1` (mixture of isomers) [Flupenthixol dihydrochloride], in the data set on OC43 [1], the “OC43_1: % staining of OC43 in screen repeat #1” value (from here on “OC43_1: % staining of OC43”) came to 8.7%, the “OC43_2: % staining of OC43 in screen repeat #2” value (“OC43_2: % staining of OC43” for short) is 33.3%, the hit_1 is 1 and the hit_2 was 1. Also, the OC43_mean with OC43 [1] (setting [5]) amounted to 21.0%. Moreover, in the data set on A549-mRuby cells, the “Growth_1: number of cells at day 4 divided by number of cells at day 0” value came out at 2.1, the toxic_1 is 0, the “Growth_2: number of cells at day 4 divided by number of cells at day 0” value is given as 3.3 and the toxic_2 amounted to 0. Further, the “decrease of SARS-CoV-2 viral titers (progeny production)” value with SARS-CoV-2 [2] is “about 2 logs”.

`Cc1nc2c([nH]1)CCN(C(=O)c1ccc(NC(=O)c3ccccc3-c3ccccc3)cc1)c1ccccc1-2.O` [Conivaptan HCl] gave a hit_1 with OC43 [1] (10 μM drug, repeat #1) of 1. The compound further yielded a hit_2 in the data set on OC43 [1] (10 μM drug, repeat #2) of 1. Moreover, the activity at 10 µM in the data set with OC43 [1] (setting [6]) is 5.7%; in the data set on OC43 [1] (setting [7]) it was 4.5%; in the data set with OC43 [1] (setting [8]), 7%. Also, in the data set on A549-mRuby cells, the “Growth_1: number of cells at day 4 divided by number of cells at day 0” value came out at 4.2. In the data set with A549-mRuby cells, the toxic_1 came out at 0. In the data set on A549-mRuby cells, the “Growth_2: number of cells at day 4 divided by number of cells at day 0” value is recorded as 4.7. In the data set on A549-mRuby cells, this compound showed a toxic_2 of 0. Also, the figures for the EC50 in the data set on OC43 [3] (setting [9]) and in the data set with SARS-CoV-2 [4] (setting [10]) were 4.6 µM and 4 µM, respectively. In addition, the “3CLpro activity: percentage of GFP-expressing cells (in words)” value (“3CLpro activity: percentage” for short) on SARS-CoV-2 3CLpro is reported as “statistically significant decrease”.

In turn, `Clc1ccc2c(c1)CCc1cccnc1C2=C1CCNCC1` [Desloratadine] registered a hit_1 in the data set on OC43 [1] (10 μM drug, repeat #1) of 1. Also, the hit_2 in the data set with OC43 [1] (10 μM drug, repeat #2) came out at 1. Moreover, in the data set on OC43 [1] (setting [6]), the activity at 10 µM was 19.3%. Also, the activity at 10 µM in the data set with OC43 [1] (setting [7]) turned out to be 13.2%. Besides, in the data set with OC43 [1] (setting [8]), the activity at 10 µM was found to be 25.4%. Besides, in the data set with A549-mRuby cells, the “Growth_1: number of cells at day 4 divided by number of cells at day 0” value is given as 4.8, the toxic_1 is 0, the “Growth_2: number of cells at day 4 divided by number of cells at day 0” value came out at 4.4 and the toxic_2 is 0. For the same compound, the “decrease of SARS-CoV-2 viral titers (progeny production)” value in the data set on SARS-CoV-2 [2] is “about 2 logs”.

In the data set on OC43 [1] (setting [5]), `CS(=O)(=O)CCNCc1ccc(-c2ccc3ncnc(Nc4ccc(OCc5cccc(F)c5)c(Cl)c4)c3c2)o1` [Lapatinib] showed an OC43_mean of 9.7%. In addition, the “OC43_1: % staining of OC43” value with OC43 [1] (setting [11]) is 5.2%. For the same compound, in the data set with OC43 [1] (setting [12]), the “OC43_2: % staining of OC43” value is reported as 14.1%. Further, in the data set with A549-mRuby cells, the “Growth_1: number of cells at day 4 divided by number of cells at day 0” value stood at 3.8 and the “Growth_2: number of cells at day 4 divided by number of cells at day 0” value is given as 4.4. The EC50 with OC43 [3] (setting [9]) came to 3.1 µM. The EC50 in the data set with SARS-CoV-2 [4] (Severe acute respiratory syndrome coronavirus 2, read-out: EC50 SARS2) was found to be 1.6 µM. At SARS-CoV-2 3CLpro, the “3CLpro activity: percentage” value is “statistically significant decrease”.

On to `N#Cc1ccc2[nH]cc(CCCCN3CCN(c4ccc5oc(C(N)=O)cc5c4)CC3)c2c1.O` [Vilazodone HCl], for which, in the data set on OC43 [1] (10 μM drug, repeat #1), the hit_1 was found to be 1. This compound also had a hit_2 with OC43 [1] (10 μM drug, repeat #2) of 1. The activity at 10 µM in the data set with OC43 [1] (setting [6]) was 9.8%; in the data set on OC43 [1] (setting [7]), 13%; with OC43 [1] (setting [8]) it was 6.7%. For the same compound, the “Growth_1: number of cells at day 4 divided by number of cells at day 0” value in the data set with A549-mRuby cells is recorded as 3.5. Further, in the data set on A549-mRuby cells, the toxic_1 is on record as 0. Also, in the data set on A549-mRuby cells, the “Growth_2: number of cells at day 4 divided by number of cells at day 0” value came out at 3.9. Further, the toxic_2 in the data set with A549-mRuby cells came to 0. For the same compound, the figures for the EC50 in the data set on OC43 [3] (setting [9]) and with SARS-CoV-2 [4] (setting [10]) were 3.6 µM and 4.5 µM, respectively. Besides, on SARS-CoV-2 3CLpro, the “3CLpro activity: percentage” value is listed as “statistically significant decrease”.

Bafetinib [Bafetinib (INNO-406)] displayed an OC43_mean with OC43 [1] (setting [5]) of 13.4%. For the same compound, the “OC43_1: % staining of OC43” value with OC43 [1] (setting [11]) turned out to be 17.2%. Also, in the data set on OC43 [1] (setting [12]), the “OC43_2: % staining of OC43” value was determined as 9.6%. In the data set on OC43 [1] (10 μM drug, repeat #1), this compound yielded a hit_1 of 1. The hit_2 in the data set with OC43 [1] (10 μM drug, repeat #2) stood at 1. In the data set on A549-mRuby cells, the “Growth_1: number of cells at day 4 divided by number of cells at day 0” value turned out to be 5.0, the toxic_1 is given as 0, the “Growth_2: number of cells at day 4 divided by number of cells at day 0” value amounted to 3.6 and the toxic_2 was 0. Besides, the EC50 with OC43 [3] (setting [13]) came to 2.1 µM. Also, the EC50 in the data set with SARS-CoV-2 [4] (read-out: EC50 SARS2) was determined as 2.2 µM. Further, the “3CLpro activity: percentage” value on SARS-CoV-2 3CLpro is recorded as “statistically significant decrease”.

Turning to Retapamulin, in the data set on OC43 [1], the OC43_mean stood at 12.2%. The “OC43_1: % staining of OC43” value in the data set on OC43 [1] (setting [11]) came to 11.7%. In addition, in the data set with OC43 [1] (setting [12]), the “OC43_2: % staining of OC43” value stood at 12.6%. For the same compound, the hit_1 in the data set on OC43 [1] (10 μM drug, repeat #1) was 1. The same compound had a hit_2 in the data set on OC43 [1] (10 μM drug, repeat #2) of 1. Also, in the data set with A549-mRuby cells, the “Growth_1: number of cells at day 4 divided by number of cells at day 0” value came to 4.3, the toxic_1 was 0, the “Growth_2: number of cells at day 4 divided by number of cells at day 0” value stood at 4.1 and the toxic_2 amounted to 0. Moreover, in the data set on OC43 [3] (setting [13]), the EC50 came out at 4.5 µM. The EC50 in the data set on SARS-CoV-2 [4] (read-out: EC50 SARS2) amounted to 8 µM. Also, the “3CLpro activity: percentage” value on SARS-CoV-2 3CLpro is given as “statistically significant decrease”.

For the compound Velpatasvir, in the data set with OC43 [1] (setting [5]), the OC43_mean came to 18.0%. In addition, the “OC43_1: % staining of OC43” value with OC43 [1] (setting [11]) turned out to be 26.0%. For the same compound, the “OC43_2: % staining of OC43” value with OC43 [1] (setting [12]) amounted to 10.0%. The compound further gave a hit_1 in the data set on OC43 [1] (10 μM drug, repeat #1) of 1. The compound further gave a hit_2 in the data set with OC43 [1] (10 μM drug, repeat #2) of 1. In the data set on A549-mRuby cells, the “Growth_1: number of cells at day 4 divided by number of cells at day 0” value is 6.2, the toxic_1 is 0, the “Growth_2: number of cells at day 4 divided by number of cells at day 0” value worked out at 5.6 and the toxic_2 stood at 0. Besides, in the data set on OC43 [3] (setting [13]), the EC50 turned out to be 2 µM. Further, the EC50 in the data set with SARS-CoV-2 [4] (read-out: EC50 SARS2) was over 10 µM.

As a reminder, the EC50 is the midpoint of the concentration-response curve.
